Here are results for 20 compounds from patent publication US20090156577A1, “7-AMINO ALKYLIDENYL-HETEROCYCLIC QUINOLONES AND NAPHTHYRIDONES” (priority 2004, published 2009).

Values after ≈ are worked out from the molar mass of the structure shown. Where two headings read alike, the source gives them in different places.

This experiment relates to pathogenic bacteria. The experiment in a line: MIC by microdilution broth method (NCCLS M7-A4), in vitro antibacterial activity. The experiment is classed as cell-based. The procedure, abridged: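 Broth microdilution per NCCLS M7-A4: two-fold serial dilutions in cation-adjusted Mueller-Hinton broth, inoculum about 5×10^4 CFU/well. Trays incubated 16–20 h at 35 °C. MIC read by comparing growth against no-compound growth controls.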

[1] abbreviates: Staphylococcus aureus, Organism A: Staphylococcus aureus OC4172, read-out: MIC.
[2] abbreviates: Streptococcus pneumoniae, ATCC49619, Organism E: Streptococcus pneumoniae ATCC 49619, read-out: MIC.
Where [3] appears, read: Streptococcus pneumoniae, Organism B: fluoroquinolone-resistant clinical isolate of Streptococcus pneumoniae (QRDR amino acid substitutions).
Setting [4] is: Streptococcus pneumoniae, Organism C: fluoroquinolone-resistant clinical isolate of Streptococcus pneumoniae (QRDR amino acid substitutions).
Where [5] appears, read: Streptococcus pneumoniae, Organism D: fluoroquinolone-resistant clinical isolate of Streptococcus pneumoniae (QRDR amino acid substitutions).

On to `NCC(Cl)=C1CCN(c2c(F)c(N)c3c(=O)c(C(=O)O)cn(C4CC4)c3c2F)CC1` [Compound 369, 5-Amino-7-[4-(2-amino-1-chloro-ethylidene)-piperidin-1-yl]-1-cyclopropyl-6,8-difluoro-4-oxo-1,4-dihydro-quinoline-3-carboxylic Acid], for which the MIC under setting [1] stood at 0.03 µg/mL (≈ 0.0684 µM); the MIC under setting [2] came to 0.03 µg/mL (≈ 0.0684 µM); it took 0.06 µg/mL (≈ 0.137 µM) to inhibit growth under setting [3] (MIC); the minimum inhibitory concentration (MIC) under setting [4] worked out at 0.5 µg/mL (≈ 1.14 µM); 0.12 µg/mL (≈ 0.273 µM) was the least that counted as inhibitory under setting [5] (MIC).
As to `NCC(Cl)=C1CCN(c2c(F)cc3c(=O)c(C(=O)O)cn(C4CC4)c3c2OCF)CC1` [Compound 370, 7-[4-(2-Amino-1-chloro-ethylidene)-piperidin-1-yl]-1-cyclopropyl-6-fluoro-8-fluoromethoxy-4-oxo-1,4-dihydro-quinoline-3-carboxylic Acid], the MIC is, setting by setting: under setting [1], 2 µg/mL (≈ 4.41 µM); under setting [2], 8 µg/mL (≈ 17.6 µM); under setting [3], over 16 µg/mL; under setting [4], over 16 µg/mL; under setting [5], 16 µg/mL (≈ 35.3 µM).
As for `Cc1c(N2CCC(=C(Cl)CN)CC2)c(F)cc2c(=O)c(C(=O)O)cn(C3CC3)c12` [Compound 371, 7-[4-(2-Amino-1-chloro-ethylidene)-piperidin-1-yl]-1-cyclopropyl-6-fluoro-8-methyl-4-oxo-1,4-dihydro-quinoline-3-carboxylic Acid], the MIC reads like this: under setting [1], at most 0.015 µg/mL; under setting [2], 0.03 µg/mL (≈ 0.0714 µM); under setting [3], 0.06 µg/mL (≈ 0.143 µM); under setting [4], 0.12 µg/mL (≈ 0.286 µM); under setting [5], 0.12 µg/mL (≈ 0.286 µM).
As for `C[C@H]1COc2c(N3CCC/C(=C(/Cl)CN)CC3)c(F)cc3c(=O)c(C(=O)O)cn1c23` [Compound 372, (3S)-9-[(Z)-4-(2-Amino-1-chloro-ethylidene)-azepan-1-yl]-8-fluoro-3-methyl-6-oxo-2,3-dihydro-6H-1-oxa-3a-aza-phenalene-5-carboxylic Acid], the minimal inhibitory concentration (MIC) runs as follows: under setting [1], 0.5 µg/mL (≈ 1.15 µM); under setting [2], 2 µg/mL (≈ 4.59 µM); under setting [4], 16 µg/mL (≈ 36.7 µM); under setting [5], 8 µg/mL (≈ 18.4 µM).
`C[C@H]1COc2c(N3CCC/C(=C(\Cl)CN)CC3)c(F)cc3c(=O)c(C(=O)O)cn1c23` [Compound 373, (3S)-9-[(E)-4-(2-Amino-1-chloro-ethylidene)-azepan-1-yl]-8-fluoro-3-methyl-6-oxo-2,3-dihydro-6H-1-oxa-3a-aza-phenalene-5-carboxylic Acid]: the MIC came out at 0.06 µg/mL (≈ 0.138 µM) under setting [1]; 0.12 µg/mL (≈ 0.275 µM) under setting [2]; 0.5 µg/mL (≈ 1.15 µM) under setting [3]; 2 µg/mL (≈ 4.59 µM) under setting [4]; 1 µg/mL (≈ 2.29 µM) under setting [5].
Take `NC/C(F)=C1\CCCN(c2nc3c(cc2F)c(=O)c(C(=O)O)cn3C2CC2)C1` [Compound 374, (Z)-7-[3-(2-Amino-1-fluoro-ethylidene)-piperidin-1-yl]-1-cyclopropyl-6-fluoro-4-oxo-1,4-dihydro-[1,8]naphthyridine-3-carboxylic acid]: the MIC stood at 0.06 µg/mL (≈ 0.154 µM) under setting [1]; 0.5 µg/mL (≈ 1.28 µM) under setting [2]; 2 µg/mL (≈ 5.12 µM) under setting [3]; 16 µg/mL (≈ 41 µM) under setting [4]; 4 µg/mL (≈ 10.2 µM) under setting [5].
For `NC/C=C1/CCCN(c2nc3c(cc2F)c(=O)c(C(=O)O)cn3C2CC2)C1` [Compound 375, (Z)-7-[3-(2-Amino-ethylidene)-piperidin-1-yl]-1-cyclopropyl-6-fluoro-4-oxo-1,4-dihydro-[1,8]naphthyridine-3-carboxylic acid] the same measures were 0.12 µg/mL (≈ 0.322 µM), 8 µg/mL (≈ 21.5 µM), over 16 µg/mL, over 16 µg/mL and over 16 µg/mL.
Regarding `NC/C=C1\CCCN(c2nc3c(cc2F)c(=O)c(C(=O)O)cn3C2CC2)C1` [Compound 376, (E)-7-[3-(2-Amino-ethylidene)-piperidin-1-yl]-1-cyclopropyl-6-fluoro-4-oxo-1,4-dihydro-[1,8]naphthyridine-3-carboxylic acid], the MIC reads like this: under setting [1], 0.25 µg/mL (≈ 0.671 µM); under setting [2], 1 µg/mL (≈ 2.69 µM); under setting [4], over 16 µg/mL; under setting [5], over 16 µg/mL.
Consider `C/C(CN)=C1/CCCN(c2nc3c(cc2F)c(=O)c(C(=O)O)cn3C2CC2)C1` [Compound 377, (E)-7-[3-(2-Amino-1-methyl-ethylidene)-piperidin-1-yl]-1-cyclopropyl-6-fluoro-4-oxo-1,4-dihydro-[1,8]naphthyridine-3-carboxylic acid], for which the MIC reads like this: under setting [1], 0.5 µg/mL (≈ 1.29 µM); under setting [2], 4 µg/mL (≈ 10.4 µM); under setting [3], 16 µg/mL (≈ 41.4 µM); under setting [4], 8 µg/mL (≈ 20.7 µM); under setting [5], over 16 µg/mL.
As to `NC/C(Cl)=C1\CCCN(c2nc3c(cc2F)c(=O)c(C(=O)O)cn3C2CC2)CC1` [Compound 378, (Z)-7-[4-(2-Amino-1-chloro-ethylidene)-azepan-1-yl]-1-cyclopropyl-6-fluoro-4-oxo-1,4-dihydro-[1,8]naphthyridine-3-carboxylic acid], the MIC runs as follows: under setting [1], 0.25 µg/mL (≈ 0.594 µM); under setting [2], 1 µg/mL (≈ 2.38 µM); under setting [4], 4 µg/mL (≈ 9.5 µM); under setting [5], 16 µg/mL (≈ 38 µM).
For `NC/C(Cl)=C1/CCCN(c2nc3c(cc2F)c(=O)c(C(=O)O)cn3C2CC2)CC1` [Compound 379, (E)-7-[4-(2-Amino-1-chloro-ethylidene)-azepan-1-yl]-1-cyclopropyl-6-fluoro-4-oxo-1,4-dihydro-[1,8]naphthyridine-3-carboxylic acid], the MIC was found to be 0.25 µg/mL (≈ 0.594 µM) under setting [1]; 2 µg/mL (≈ 4.75 µM) under setting [2]; 1 µg/mL (≈ 2.38 µM) under setting [3]; 8 µg/mL (≈ 19 µM) under setting [4]; 16 µg/mL (≈ 38 µM) under setting [5].
For `C/C(CN)=C1\CCCN(c2nc3c(cc2F)c(=O)c(C(=O)O)cn3-c2ccc(F)cc2F)C1` [Compound 380, (Z)-7-[3-(2-Amino-1-methyl-ethylidene)-piperidin-1-yl]-1-(2,4-difluoro-phenyl)-6-fluoro-4-oxo-1,4-dihydro-[1,8]naphthyridine-3-carboxylic acid] the same measures were 0.12 µg/mL (≈ 0.262 µM), 0.5 µg/mL (≈ 1.09 µM), 8 µg/mL (≈ 17.5 µM), 8 µg/mL (≈ 17.5 µM) and 4 µg/mL (≈ 8.73 µM).
The matching figures for `C/C(CN)=C1/CCCN(c2nc3c(cc2F)c(=O)c(C(=O)O)cn3-c2ccc(F)cc2F)C1` [Compound 381, (E)-7-[3-(2-Amino-1-methyl-ethylidene)-piperidin-1-yl]-1-(2,4-difluoro-phenyl)-6-fluoro-4-oxo-1,4-dihydro-[1,8]naphthyridine-3-carboxylic acid]: 0.5 µg/mL (≈ 1.09 µM), 4 µg/mL (≈ 8.73 µM), 4 µg/mL (≈ 8.73 µM), over 16 µg/mL and over 16 µg/mL.
For `NC/C(F)=C1\CCCN(c2cc3c(cc2F)c(=O)c(C(=O)O)cn3C2CC2)C1` [Compound 382, (Z)-7-[3-(2-Amino-1-fluoro-ethylidene)-piperidin-1-yl]-1-cyclopropyl-6-fluoro-4-oxo-1,4-dihydro-quinoline-3-carboxylic acid] the same measures were 0.5 µg/mL (≈ 1.28 µM), 2 µg/mL (≈ 5.14 µM), 8 µg/mL (≈ 20.5 µM), over 16 µg/mL and 16 µg/mL (≈ 41.1 µM).
Consider `NC/C=C1/CCCN(c2cc3c(cc2F)c(=O)c(C(=O)O)cn3C2CC2)C1` [Compound 383, (Z)-7-[3-(2-Amino-ethylidene)-piperidin-1-yl]-1-cyclopropyl-6-fluoro-4-oxo-1,4-dihydro-quinoline-3-carboxylic acid], for which the MIC is 0.12 µg/mL (≈ 0.323 µM) under setting [1]; 1 µg/mL (≈ 2.69 µM) under setting [2]; 8 µg/mL (≈ 21.5 µM) under setting [3]; over 16 µg/mL under setting [4]; over 16 µg/mL under setting [5].
`NC/C=C1\CCCN(c2cc3c(cc2F)c(=O)c(C(=O)O)cn3C2CC2)C1` [Compound 384, (E)-7-[3-(2-Amino-ethylidene)-piperidin-1-yl]-1-cyclopropyl-6-fluoro-4-oxo-1,4-dihydro-quinoline-3-carboxylic acid]: the MIC was 1 µg/mL (≈ 2.69 µM) under setting [1], 8 µg/mL (≈ 21.5 µM) under setting [2], over 16 µg/mL under setting [4] and over 16 µg/mL under setting [5].
In the case of `C/C(CN)=C1/CCCN(c2cc3c(cc2F)c(=O)c(C(=O)O)cn3C2CC2)C1` [Compound 385, (E)-7-[3-(2-Amino-1-methyl-ethylidene)-piperidin-1-yl]-1-cyclopropyl-6-fluoro-4-oxo-1,4-dihydro-quinoline-3-carboxylic acid], the MIC was 1 µg/mL (≈ 2.59 µM) under setting [1]; 8 µg/mL (≈ 20.8 µM) under setting [2]; over 16 µg/mL under setting [3]; over 16 µg/mL under setting [4]; over 16 µg/mL under setting [5].
Take `NC/C(Cl)=C1\CCCN(c2cc3c(cc2F)c(=O)c(C(=O)O)cn3C2CC2)CC1` [Compound 386, (Z)-7-[4-(2-Amino-1-chloro-ethylidene)-azepan-1-yl]-1-cyclopropyl-6-fluoro-4-oxo-1,4-dihydro-quinoline-3-carboxylic acid]: the MIC runs as follows: under setting [1], 0.25 µg/mL (≈ 0.595 µM); under setting [2], 2 µg/mL (≈ 4.76 µM); under setting [4], 8 µg/mL (≈ 19.1 µM); under setting [5], 16 µg/mL (≈ 38.1 µM).
With `NC/C(Cl)=C1/CCCN(c2cc3c(cc2F)c(=O)c(C(=O)O)cn3C2CC2)CC1` [Compound 387, (E)-7-[4-(2-Amino-1-chloro-ethylidene)-azepan-1-yl]-1-cyclopropyl-6-fluoro-4-oxo-1,4-dihydro-quinoline-3-carboxylic acid], the MIC under setting [1] was 0.5 µg/mL (≈ 1.19 µM); the MIC under setting [2] is 2 µg/mL (≈ 4.76 µM); the minimum inhibitory concentration (MIC) under setting [3] was over 16 µg/mL; 16 µg/mL (≈ 38.1 µM) was the least that counted as inhibitory under setting [4] (MIC); the MIC under setting [5] came to 16 µg/mL (≈ 38.1 µM).
As for `COc1c(N2CCC/C(=C(/F)CN)C2)c(F)cc2c(=O)c(C(=O)O)cn(C3CC3)c12` [Compound 388, (Z)-7-[3-(2-Amino-1-fluoro-ethylidene)-piperidin-1-yl]-1-cyclopropyl-6-fluoro-8-methoxy-4-oxo-1,4-dihydro-quinoline-3-carboxylic acid], the MIC is at most 0.25 µg/mL under setting [1]; 0.5 µg/mL (≈ 1.19 µM) under setting [2]; 2 µg/mL (≈ 4.77 µM) under setting [3]; 8 µg/mL (≈ 19.1 µM) under setting [4]; 2 µg/mL (≈ 4.77 µM) under setting [5].
